“Also recorded” adds a separate entry of the source.
How the values were obtained:
Akt S473 phosphorylation = assay: Western blot analysis of S473 phosphorylation; format: cell-based; conditions: Mus musculus, N2a, 0.5 h; Neuro 2A cells, IGF stimulation 30 min; read-out: IC50 of IGF-induced S473 phosphorylation
Procedure: Neuro 2A cells were seeded in 12-well plates in DMEM containing 5% FBS for 24 hr.
After overnight serum starvation (in 0% FBS DMEM), cells were incubated for 30 min at 37 °C with G7 or LY294002 or Torin 1 (Sigma Aldrich) at various concentrations, or DMSO control. IGF-1 was added to each well at a final concentration of 100 ng/mL. After 30-min incubation cells were washed with cold PBS and lysed with 50 µL lysis buffer containing 1% Triton X-100 and protease/phosphatase inhibitors (Cell Signaling Technology) or RIPA buffer (Santa Cruz Biotech). Samples were electrophoresed in 4–12% Bis-Tris gels (Life Technologies) at 150 V using MOPS SDS running buffer. Proteins were transferred electrophoretically to a PVDF or nitrocellulose membrane. For detection of cleaved […]
caspase 3 a Trans-Blot Turbo Transfer System (Bio-Rad, 25 V for 25 min) with PVDF membrane were used. […]
anti- GAPDH (14C10) antibody (#2118) (all antibodies were from Cell Signaling Technology unless indicated, 1:1000 dilution was used) at 4°C overnight, washed three times with TBS-T, then incubated with peroxidase-conjugated secondary antibody (Sigma-Aldrich) for 1 hr at room temperature. […] Band intensity was quantitated using Kodak 1D imaging analysis software. […]

activated Akt = assay: Substrate peptide phosphorylation by activated Akt (ELISA-based); format: biochemical; conditions: 20 µM G7, ATP and substrate peptide
PFPK5(P.falciparum) = tested on: T1, PFPK5(P.falciparum); assay: KINOMEscan; format: binding; conditions: 50000 nM
T1 construct: purchased DiscoveRx KINOMEscan

EPHA2 = assay: KINOMEscan; conditions: 50000 nM
Procedure: KINOMEscan™ selectivity screen
(§1) Briefly, Kinase-tagged T7 phage strains were grown in parallel in an E. coli host derived from the BL21 strain. E. coli were grown to log-phase and infected with T7 phage from a frozen stock and incubated with shaking at 32°C until lysis (90-150 minutes). The kinases were produced in HEK-293 cells and subsequently tagged with DNA for qPCR detection. Streptavidin-coated magnetic beads were treated with biotinylated small molecule ligands to generate affinity resins for kinase
(§2) inhibitor or DMSO control was performed in polypropylene 384-well plates for 1 hr at room temperature. After wash with PBS buffer containing 0.05% Tween 20, the beads were incubated in elution buffer (PBS containing 0.05 % Tween 20 and 0.5 μM non-biotinylated affinity ligand) for 30 minutes at room temperature. The kinase concentration in the eluates was measured by qPCR.

MAP3K4 = assay: KINOMEscan; conditions: 50000 nM
Procedure: KINOMEscan™ selectivity screen
(§3) The assay was perfor med at DiscoveRx Corporation according the methods published previously5. Briefly, Kinase-tagged T7 phage strains were grown in parallel in an E. coli host derived from the BL21 strain. E. coli were grown to log-phase and infected with T7 phage from a frozen stock and incubated with shaking at 32°C until lysis (90-150 minutes). The kinases were produced in HEK-293 cells and subsequently tagged with DNA for qPCR detection. Streptavidin-coated magnetic beads were treated with biotinylated small molecule ligands to generate affinity resins for kinase
as §2

NEK5 = assay: KINOMEscan; conditions: 50000 nM
Procedure: KINOMEscan™ selectivity screen
as §3, §2

p38-delta = assay: KINOMEscan; conditions: 50000 nM
Procedure: KINOMEscan™ selectivity screen
as §1, §2

CDK9 = assay: KINOMEscan; conditions: 50000 nM
Procedure: KINOMEscan™ selectivity screen
as §1, §2

TNK2 = assay: KINOMEscan; conditions: 50000 nM
Procedure: KINOMEscan™ selectivity screen
as §3, §2

HIPK4 = assay: KINOMEscan; conditions: 50000 nM
Procedure: KINOMEscan™ selectivity screen
as §3, §2

HPK1 = assay: KINOMEscan; conditions: 50000 nM
Procedure: KINOMEscan™ selectivity screen
as §3, §2

PRKCI = assay: KINOMEscan; conditions: 50000 nM
Procedure: KINOMEscan™ selectivity screen
as §3, §2

AMPK-alpha2 = assay: KINOMEscan; conditions: 50000 nM
Procedure: KINOMEscan™ selectivity screen
as §3, §2

LIMK2 = assay: KINOMEscan; conditions: 50000 nM
Procedure: KINOMEscan™ selectivity screen
as §3, §2

BRK = assay: KINOMEscan; conditions: 50000 nM
Procedure: KINOMEscan™ selectivity screen
as §3, §2

EPHA5 = assay: KINOMEscan; conditions: 50000 nM
Procedure: KINOMEscan™ selectivity screen
as §3, §2

TBK1 = assay: KINOMEscan; conditions: 50000 nM
Procedure: KINOMEscan™ selectivity screen
as §3, §2

ASK1 = assay: KINOMEscan; conditions: 50000 nM
Procedure: KINOMEscan™ selectivity screen
as §3, §2

LZK = assay: KINOMEscan; conditions: 50000 nM
Procedure: KINOMEscan™ selectivity screen
as §1, §2

PFTK1 = assay: KINOMEscan; conditions: 50000 nM
Procedure: KINOMEscan™ selectivity screen
as §1, §2

NIK = assay: KINOMEscan; conditions: 50000 nM
Procedure: KINOMEscan™ selectivity screen
(§4) Briefly, Kinase-tagged T7 phage strains were grown in parallel in an E. coli host derived from the BL21 strain. E. coli were grown to log-phase and infected with T7 phage from a frozen stock and incubated with shaking at 32°C until lysis (90-150 minutes). The kinases were produced in HEK-293 cells and subsequently tagged with DNA for qPCR detection.
(§5) After wash with PBS buffer containing 0.05% Tween 20, the beads were incubated in elution buffer (PBS containing 0.05 % Tween 20 and 0.5 μM non-biotinylated affinity ligand) for 30 minutes at room temperature. The kinase concentration in the eluates was measured by qPCR.

TSSK1B = assay: KINOMEscan; conditions: 50000 nM
Procedure: KINOMEscan™ selectivity screen
as §4, §5

NIM1 = assay: KINOMEscan; conditions: 50000 nM
Procedure: KINOMEscan™ selectivity screen
as §1, §2

EGFR = assay: KINOMEscan; conditions: 50000 nM
Procedure: KINOMEscan™ selectivity screen
as §3, §2

[1] = tested on: RPS6KA5(Kin.Dom.1-N-terminal); assay: KINOMEscan; conditions: 50000 nM
Procedure: KINOMEscan™ selectivity screen
as §3, §2

LYN = assay: KINOMEscan; conditions: 50000 nM
Procedure: KINOMEscan™ selectivity screen
as §3, §2

CAMK2A = assay: KINOMEscan; conditions: 50000 nM
Procedure: KINOMEscan™ selectivity screen
as §3, §2

BMX = assay: KINOMEscan; conditions: 50000 nM
Procedure: KINOMEscan™ selectivity screen
as §1, §2

PKAC-beta = assay: KINOMEscan; conditions: 50000 nM
Procedure: KINOMEscan™ selectivity screen
as §3, §2

VRK2 = assay: KINOMEscan; conditions: 50000 nM
Procedure: KINOMEscan™ selectivity screen
as §3, §2

CSNK2A1 = assay: KINOMEscan; conditions: 50000 nM
Procedure: KINOMEscan™ selectivity screen
as §3, §2

CSNK1G2 = assay: KINOMEscan; conditions: 50000 nM
Procedure: KINOMEscan™ selectivity screen
The kinases were produced in HEK-293 cells and subsequently tagged with DNA for qPCR detection. Streptavidin-coated magnetic beads were treated with biotinylated small molecule ligands to generate affinity resins for kinase
as §2

PIP5K1A = assay: KINOMEscan; conditions: 50000 nM
GSK3B = assay: KINOMEscan; conditions: 50000 nM
Procedure: KINOMEscan™ selectivity screen
as §1, §2

DRAK1 = assay: KINOMEscan; conditions: 50000 nM
Procedure: KINOMEscan™ selectivity screen
as §1, §2

MAP3K3 = assay: KINOMEscan; conditions: 50000 nM
Procedure: KINOMEscan™ selectivity screen
as §1, §2

ITK = assay: KINOMEscan; conditions: 50000 nM
Procedure: KINOMEscan™ selectivity screen
as §1, §2

KIT(V559D,T670I) = assay: KINOMEscan; conditions: 50000 nM
Procedure: KINOMEscan™ selectivity screen
as §3, §2

For `Oc1cc(-c2ccccc2)c2ccccc2n1` [G7, 4-phenylquinolin-2(1H)-one], the IC50 (Akt S473 phosphorylation) was 18 µM, the “effect on phosphorylation capability of activated Akt” value (activated Akt) was “No effects; also recorded: only negligible change” and the “Percent Control” value (PFPK5(P.falciparum)) was 85%. For the same compound, the “Percent Control” value (EPHA2) was 100%, the “Percent Control” value (MAP3K4) was 100% and the “Percent Control” value (NEK5) was 100%. The “Percent Control” value (p38-delta) was 100%, the “Percent Control” value (CDK9) was 99% and the “Percent Control” value (TNK2) was 99%. For the same compound, the “Percent Control” value (HIPK4) was 98%, the “Percent Control” value (HPK1) was 98% and the “Percent Control” value (PRKCI) was 98%. For the same compound, the “Percent Control” value (AMPK-alpha2) was 97%, the “Percent Control” value (LIMK2) was 97% and the “Percent Control” value (BRK) was 96%. For the same compound, the “Percent Control” value (EPHA5) was 95%, the “Percent Control” value (TBK1) was 95% and the “Percent Control” value (ASK1) was 94%. For the same compound, the “Percent Control” value (LZK) was 94%, the “Percent Control” value (PFTK1) was 94% and the “Percent Control” value (NIK) was 93%. For the same compound, the “Percent Control” value (TSSK1B) was 93%, the “Percent Control” value (NIM1) was 90% and the “Percent Control” value (EGFR) was 89%. The “Percent Control” value [1] was 89%, the “Percent Control” value (LYN) was 88% and the “Percent Control” value (CAMK2A) was 87%. For the same compound, the “Percent Control” value (BMX) was 86%, the “Percent Control” value (PKAC-beta) was 86% and the “Percent Control” value (VRK2) was 82%. The “Percent Control” value (CSNK2A1) was 78%, the “Percent Control” value (CSNK1G2) was 74% and the “Percent Control” value (PIP5K1A) was 70%. For the same compound, the “Percent Control” value (GSK3B) was 68%, the “Percent Control” value (DRAK1) was 65% and the “Percent Control” value (MAP3K3) was 62%. The “Percent Control” value (ITK) was 60% and the “Percent Control” value (KIT(V559D,T670I)) was 44%.
